From ChEMBL document CHEMBL3431459, “Roche carnitine palmitoyltransferase modulator screening data (supplementary data associated with the publication CHEMBL2216752)”
≈ marks a conversion by molar mass, not a printed value.

Key:
[1] = target: T1, Carnitine O-palmitoyltransferase 1, muscle isoform (Homo sapiens, UniProt Q92523); assay: SUPPLEMENTARY: Inhibition of Carnitine palmitoyltransferase 1, muscle isoform; set-up: species or system Muscle tissue
T1 sequence (Q92523 whole entry): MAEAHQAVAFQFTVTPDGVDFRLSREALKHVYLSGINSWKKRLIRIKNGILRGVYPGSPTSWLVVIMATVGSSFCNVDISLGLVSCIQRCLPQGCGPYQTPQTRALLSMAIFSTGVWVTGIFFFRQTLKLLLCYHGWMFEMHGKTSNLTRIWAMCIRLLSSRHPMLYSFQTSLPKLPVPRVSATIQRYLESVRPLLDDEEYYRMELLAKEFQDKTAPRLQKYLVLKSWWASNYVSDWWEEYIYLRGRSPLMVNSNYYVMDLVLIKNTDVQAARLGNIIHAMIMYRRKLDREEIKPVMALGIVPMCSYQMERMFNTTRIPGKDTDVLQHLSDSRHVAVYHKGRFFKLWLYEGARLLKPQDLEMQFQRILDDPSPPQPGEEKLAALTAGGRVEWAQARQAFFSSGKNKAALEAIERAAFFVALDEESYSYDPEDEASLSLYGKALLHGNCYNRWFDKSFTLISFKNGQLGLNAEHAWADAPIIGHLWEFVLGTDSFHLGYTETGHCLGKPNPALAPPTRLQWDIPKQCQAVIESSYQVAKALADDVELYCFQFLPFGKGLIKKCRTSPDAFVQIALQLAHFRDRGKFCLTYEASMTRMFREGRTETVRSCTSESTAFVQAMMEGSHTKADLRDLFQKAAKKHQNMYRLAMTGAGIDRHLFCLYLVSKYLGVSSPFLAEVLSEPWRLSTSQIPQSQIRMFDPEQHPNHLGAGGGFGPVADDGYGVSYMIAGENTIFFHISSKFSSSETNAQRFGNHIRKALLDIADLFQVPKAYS

[2] = target: T2, Carnitine O-palmitoyltransferase 2, mitochondrial (Homo sapiens, UniProt P23786); assay: (§1) SUPPLEMENTARY: Inhibition of Carnitine palmitoyltransferase 2
T2 sequence (P23786 whole entry): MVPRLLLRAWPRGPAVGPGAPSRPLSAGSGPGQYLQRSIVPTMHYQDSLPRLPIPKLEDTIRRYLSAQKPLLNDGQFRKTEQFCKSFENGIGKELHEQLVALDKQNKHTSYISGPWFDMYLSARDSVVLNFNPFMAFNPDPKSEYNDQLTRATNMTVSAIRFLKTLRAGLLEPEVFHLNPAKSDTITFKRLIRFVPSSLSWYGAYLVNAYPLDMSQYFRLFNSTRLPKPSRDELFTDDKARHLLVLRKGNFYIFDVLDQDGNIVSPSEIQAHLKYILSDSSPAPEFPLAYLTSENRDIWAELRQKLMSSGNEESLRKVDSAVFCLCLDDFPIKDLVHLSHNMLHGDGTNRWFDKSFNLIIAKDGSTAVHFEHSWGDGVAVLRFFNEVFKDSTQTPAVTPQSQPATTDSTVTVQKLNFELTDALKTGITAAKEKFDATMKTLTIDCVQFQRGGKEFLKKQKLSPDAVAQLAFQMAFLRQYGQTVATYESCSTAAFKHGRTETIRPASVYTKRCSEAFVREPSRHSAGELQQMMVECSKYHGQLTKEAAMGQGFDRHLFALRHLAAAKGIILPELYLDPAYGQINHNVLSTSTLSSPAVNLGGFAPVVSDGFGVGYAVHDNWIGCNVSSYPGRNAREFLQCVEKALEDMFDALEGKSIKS

[3] = target: T3, Carnitine O-palmitoyltransferase 2, mitochondrial (Rattus norvegicus, UniProt P18886); assay: as §1
T3 sequence (P18886 whole entry): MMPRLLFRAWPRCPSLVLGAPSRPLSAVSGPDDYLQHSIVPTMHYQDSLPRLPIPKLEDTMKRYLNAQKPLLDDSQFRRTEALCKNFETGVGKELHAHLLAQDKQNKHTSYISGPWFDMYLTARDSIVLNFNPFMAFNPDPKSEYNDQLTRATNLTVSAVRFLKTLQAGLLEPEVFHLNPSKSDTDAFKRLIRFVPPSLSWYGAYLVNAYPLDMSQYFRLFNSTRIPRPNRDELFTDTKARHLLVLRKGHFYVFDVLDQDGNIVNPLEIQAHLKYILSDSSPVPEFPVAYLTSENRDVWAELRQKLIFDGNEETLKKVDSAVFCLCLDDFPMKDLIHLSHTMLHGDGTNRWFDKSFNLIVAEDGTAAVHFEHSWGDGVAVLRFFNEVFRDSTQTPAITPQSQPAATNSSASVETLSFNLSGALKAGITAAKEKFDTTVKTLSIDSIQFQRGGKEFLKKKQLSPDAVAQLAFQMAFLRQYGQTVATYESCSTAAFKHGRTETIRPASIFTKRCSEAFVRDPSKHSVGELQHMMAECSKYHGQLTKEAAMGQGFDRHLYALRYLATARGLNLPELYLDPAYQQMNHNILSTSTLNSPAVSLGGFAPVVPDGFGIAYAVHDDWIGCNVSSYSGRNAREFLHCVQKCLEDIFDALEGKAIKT

[4] = target: T4, Carnitine O-palmitoyltransferase 1, liver isoform (Homo sapiens, UniProt P50416); assay: (§2) SUPPLEMENTARY: Inhibition of Carnitine palmitoyltransferase 1, liver isoform
T4 sequence (P50416 whole entry): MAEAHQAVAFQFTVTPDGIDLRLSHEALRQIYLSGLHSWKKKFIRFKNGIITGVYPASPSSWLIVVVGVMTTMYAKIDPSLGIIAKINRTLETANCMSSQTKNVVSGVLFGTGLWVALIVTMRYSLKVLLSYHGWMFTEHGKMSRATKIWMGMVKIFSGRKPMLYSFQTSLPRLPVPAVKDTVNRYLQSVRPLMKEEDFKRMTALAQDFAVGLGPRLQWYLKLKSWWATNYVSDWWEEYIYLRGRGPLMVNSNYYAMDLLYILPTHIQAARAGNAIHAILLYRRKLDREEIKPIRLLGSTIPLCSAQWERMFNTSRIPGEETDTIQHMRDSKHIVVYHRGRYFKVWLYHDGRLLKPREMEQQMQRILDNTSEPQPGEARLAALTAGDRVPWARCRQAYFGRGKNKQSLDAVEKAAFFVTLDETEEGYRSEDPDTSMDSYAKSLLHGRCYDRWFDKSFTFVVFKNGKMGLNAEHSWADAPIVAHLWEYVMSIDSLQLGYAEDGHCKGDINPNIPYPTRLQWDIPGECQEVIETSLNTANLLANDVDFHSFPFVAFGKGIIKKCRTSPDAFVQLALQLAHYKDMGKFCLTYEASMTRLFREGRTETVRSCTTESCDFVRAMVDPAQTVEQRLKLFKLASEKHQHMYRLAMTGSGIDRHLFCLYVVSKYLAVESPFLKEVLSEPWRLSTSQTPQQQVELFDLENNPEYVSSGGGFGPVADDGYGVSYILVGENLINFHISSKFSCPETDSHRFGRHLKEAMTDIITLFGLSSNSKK

[5] = target: T5, Carnitine O-palmitoyltransferase 1, liver isoform (Rattus norvegicus, UniProt P32198); assay: as §2
T5 sequence (P32198 whole entry): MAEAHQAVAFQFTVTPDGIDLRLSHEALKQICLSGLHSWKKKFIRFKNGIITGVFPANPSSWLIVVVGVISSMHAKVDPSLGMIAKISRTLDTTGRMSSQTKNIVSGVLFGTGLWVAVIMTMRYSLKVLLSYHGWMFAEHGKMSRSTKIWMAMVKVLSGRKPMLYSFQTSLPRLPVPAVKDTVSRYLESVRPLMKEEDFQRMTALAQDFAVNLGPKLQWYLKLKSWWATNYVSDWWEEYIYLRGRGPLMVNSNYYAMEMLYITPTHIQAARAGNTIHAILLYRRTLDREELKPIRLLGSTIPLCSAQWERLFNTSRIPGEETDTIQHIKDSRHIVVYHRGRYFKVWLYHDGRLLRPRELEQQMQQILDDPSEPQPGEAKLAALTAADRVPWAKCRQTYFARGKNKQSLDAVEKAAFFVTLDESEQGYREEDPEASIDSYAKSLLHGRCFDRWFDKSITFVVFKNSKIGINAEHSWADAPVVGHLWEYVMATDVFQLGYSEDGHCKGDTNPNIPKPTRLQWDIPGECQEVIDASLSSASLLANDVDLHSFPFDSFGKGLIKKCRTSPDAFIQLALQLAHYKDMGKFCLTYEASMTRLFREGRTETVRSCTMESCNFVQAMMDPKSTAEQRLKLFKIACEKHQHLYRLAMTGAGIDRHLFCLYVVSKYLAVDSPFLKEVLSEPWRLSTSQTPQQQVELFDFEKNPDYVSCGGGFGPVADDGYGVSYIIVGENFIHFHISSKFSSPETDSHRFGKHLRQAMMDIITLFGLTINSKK

[6] = SUPPLEMENTARY: Lyophilisation Solubility Assay (LYSA); type: physicochemical; details: read-out: Kinetic_solubility
[7] = SUPPLEMENTARY: PAMPA permeability assay; type: physicochemical; details: read-out: Permeability

IC50 [1]	IC50 [2]	IC50 [3]	IC50 [4]	IC50 [5]	solubility kinetic [6]	Papp [7]	Structure (SMILES)
> 100 µM	> 100 µM	> 100 µM	12.8 nM	17.1 nM	2 µg/mL (≈ 4.02 µM)	0.3 ×10⁻⁶ cm/s	COc1ccc(Cl)cc1S(=O)(=O)c1cn(CC(N)=O)c2ccc(C(=O)Nc3ccccc3)cc12
2.33 µM	1.35 µM	9.31 µM	39.9 nM	102 nM	23 µg/mL (≈ 51.2 µM)	0.47 ×10⁻⁶ cm/s	COc1ccc(Cl)cc1Cc1cn(C)c2ccc(C(=O)Nc3ccc(C(=O)O)cc3)cc12
> 100 µM	17.2 µM		254 nM	760 nM	10 µg/mL (≈ 24.4 µM)	5.48 ×10⁻⁶ cm/s	O=C(COc1ccccc1)N1CCCC[C@@H]1c1nc(-c2cccc([N+](=O)[O-])n2)no1
0.95 µM	> 100 µM	> 100 µM	152 nM	151 nM	6 µg/mL (≈ 13 µM)	1.89 ×10⁻⁶ cm/s	Cc1cc(C)cc(S(=O)(=O)n2ccc3ccc(C(=O)Nc4ccc(CC(=O)O)cc4)cc32)c1
> 100 µM		7.82 µM		55 nM	5 µg/mL (≈ 10.3 µM)	2.78 ×10⁻⁶ cm/s	COc1ccc(Cl)cc1S(=O)(=O)N1CCc2ccc(C(=O)Nc3ccc(C(=O)O)cc3)cc21
> 100 µM	> 100 µM	> 100 µM	65.4 nM	56.9 nM	4 µg/mL (≈ 7.71 µM)		COc1ccc(Cl)cc1S(=O)(=O)N1CCSc2ccc(C(=O)Nc3ccc(C(=O)O)cc3)cc21
> 100 µM	> 100 µM	> 100 µM	153 nM	173 nM			O=C(COc1ccccc1)N1CCCC[C@@H]1c1noc(-c2cc(F)c(F)cc2F)n1
> 100 µM	1.44 µM	16 µM	325 nM	2910 nM			COc1ccc(Cl)cc1S(=O)(=O)N1CCOc2c(C(F)F)cc(C(=O)Nc3ccc(C(=O)O)cc3)cc21

Second part, the compound before the results:

Structure (SMILES)	IC50 [1]	IC50 [2]	IC50 [3]	IC50 [4]	IC50 [5]	solubility kinetic [6]	Papp [7]
COc1ccc(Cl)cc1Cn1ccc2ccc(C(=O)Nc3nc(CC(=O)O)cs3)cc21	24.2 µM	> 100 µM	> 100 µM	170 nM	90.5 nM	13 µg/mL (≈ 28.5 µM)	1.14 ×10⁻⁶ cm/s
Nc1cc(-c2noc([C@H]3CCCCN3C(=O)COc3ccccc3)n2)ccn1	> 100 µM	19.5 µM	35.2 µM	108 nM	250 nM	106 µg/mL (≈ 279 µM)	5.3 ×10⁻⁶ cm/s
Nc1cccc(-c2nc([C@H]3CCCCN3C(=O)COc3ccccc3)no2)n1	> 100 µM	32 µM	> 100 µM	111 nM	254 nM	25 µg/mL (≈ 65.9 µM)	5.45 ×10⁻⁶ cm/s
O=C(COc1ccccc1)N1CCCCC1c1ncc(-c2cccc([N+](=O)[O-])c2)o1 (stereo unspecified)	> 100 µM	12.8 µM		243 nM	237 nM	4 µg/mL (≈ 9.82 µM)	0.66 ×10⁻⁶ cm/s
COc1ccc(Cl)cc1S(=O)(=O)N1CCOc2ccc(C(=O)Nc3ccc(C(=O)O)cc3)cc21	14.8 µM	26.7 µM	36.6 µM	40.1 nM	35.4 nM	8 µg/mL (≈ 15.9 µM)	2.7 ×10⁻⁶ cm/s
COc1ccc(Cl)cc1S(=O)(=O)N1COc2c(F)cc(C(=O)Nc3nc(CC(=O)O)cs3)cc21	0.553 µM	> 100 µM	> 100 µM	31.2 nM	52.3 nM	309 µg/mL (≈ 585 µM)	2.24 ×10⁻⁶ cm/s
Cc1cc(C)cc(S(=O)(=O)c2n[nH]c3ccc(C(=O)Nc4ccccc4)cc23)c1	> 100 µM	> 100 µM	> 100 µM	221 nM		< 1 µg/mL	
O=C([O-])c1cccc(-c2csc([C@H]3CCCCN3C(=O)COc3ccccc3)n2)c1.[Na+]		28.7 µM	49.6 µM	19.7 nM	96.4 nM	> 525 µg/mL	3.55 ×10⁻⁶ cm/s
O=C([C@H]1CCCCN1C(=O)COc1ccccc1)N1CCN(c2ncccn2)CC1	> 100 µM	1.56 µM	2.61 µM	167 nM	322 nM		
O=C(COc1ccccc1)N1CCCC[C@@H]1c1noc(C2C[C@@H]3CC[C@H]2C3)n1 (stereo partly specified)	> 100 µM	19.9 µM	> 100 µM	32.6 nM	310 nM	< 1 µg/mL	
